The source of these data is PMC4401541, “Structure- and Ligand-Based Virtual Screening Identifies New Scaffolds for Inhibitors of the Oncoprotein MDM2” (PLoS ONE, 2015).

What is called inhibition is how much of the control response was suppressed. Broadly, the solubility is the dissolved amount per volume that the medium holds. What is called IC50 is the concentration at which inhibition is half-maximal.

Converted amounts (≈) assume the structure as drawn. Bounds are passed on as bounds.

Series [1] concerns the target T1, MDM2-N (Homo sapiens, UniProt Q00987). The series can be described thus: Competitive capillary electrophoresis (CE) assay, compound vs fluorescently labelled p53 peptide (p53-F). The series is classed as binding. Conditions: for inhibition at 300 µM: read-out: CE % inhibition at 300 μM; for activity in the assays: CE and FP screening assays. On the procedure:
Capillary electrophoresis (CE) is an analytical technique used to study the interaction between biomacromolecules. In CE, electrophoresis is carried out in the interior of a narrow capillary. The technique separates ions based on their electrophoretic mobility with the use of applied voltage. The electrophoretic mobility is dependent on the charge of the molecule, the viscosity and the molecular size. CE is performed using a high voltage to produce a high resolution profile with a short migration time to separate numerous analytes. […] The assay provides a high sensitivity through the use of a Laser Induced Fluorescence (LIF) detector to enable the detection of weak binding fragments. This enables the interaction assay to be performed with a low labelled probe concentration and allows compounds to be screened at low concentrations. A competitive CE assay was used to detect competition between compounds and fluorescently labelled p53 peptide (p53-F) in MDM2-N/p53 binding site. The injection sample contained carboxyfluorescein (internal standard (10pM)) and p53-F (500pM) in TAPS/Tris (1mM) pH 8.0, DTT (1mM). […] After injection of the sample, a voltage of 10kV was applied and separation was carried out for 6.5min.
TR is the migration time of p53-F peak.
TL is the migration time of p53-F peak in the presence of MDM2-N + compound.

For series [2], the target named is T1, MDM2-N. The series can be described thus: Fluorescence polarization (FP) competition assay with p53-F. As to conditions: read-out: FP % inhibition at 700 μM; compound 700 μM; MDM2-N 500 nM; p53-F 2 nM. The class given is binding. The protocol:
Fluorescence polarization experiments were performed with a LJL Biosystems Analyst multi-plate reader in 50mM HEPES pH 7.5, 100mM NaCl, 1mM DTT. Fluorescein labelled p53 peptide (p53-F) was synthesised by Biomatiks. […] The competition experiments were carried out by mixing MDM2-N (500nM), p53-F (2nM) and test compound in black NBS plate. […] The inhibition (%) was calculated using the equation below. %Inhibition=100(AF-AL)/(AF-AU) Where: AF is the anisotropy of fully bound p53-F.
AU is the anisotropy of unbound p53-F.
AL is the anisotropy of p53-F in the presence of MDM2-N + compound.
Background: Fluorescence polarisation rises when a labelled molecule tumbles more slowly, as on binding a larger partner.

Series [3] in a line: Solubility of the fragments in assay buffer. The series is classed as physicochemical. Conditions: aqueous buffer, read-out: Estimated solubility limit. The text has this: Supplement pone.0121424.s006.docx, table 5 | column: Estimated solubility limit
A further series deals with MDM2. Conditions: read-out: literature IC50 value for racemic Nutlin-3; cited from earlier work.

With `O=C(NCc1ccccc1)N(c1ccccc1)c1ccccc1` [Compound 19], the inhibition at 300 µM on MDM2-N [1] is 42%. Also, on MDM2-N [2], the inhibition at 700 µM amounted to 18%.

Take `CCn1c(=O)c2c(nc(-n3nc(C)cc3C)n2Cc2ccc(F)cc2)n(C)c1=O` [Compound 25]: the “activity in the assays” value on MDM2-N [1] is “inactive”.

For `CC1CCN(c2nc3c(c(=O)n(C)c(=O)n3C)n2CC(=O)c2ccccc2)CC1` [Compound 26], at MDM2-N [1], the “activity in the assays” value was “inactive”.

As for `O=C1N[C@@](O)(c2ccccc2)c2ccccc21` [Compound 39], at MDM2-N [1], the inhibition at 300 µM stood at 40%. At MDM2-N [2], the inhibition at 700 µM came to 13%.

Consider `O=C1Cc2ccccc2N1` [Compound 40], for which the inhibition at 300 µM on MDM2-N [1] was determined as 28%. In addition, at MDM2-N [2], the inhibition at 700 µM amounted to 8%. Besides, the solubility in series [3] was above 2000 µM.

For the compound `Oc1cccc(Nc2ccccc2)c1` [Compound 41], the inhibition at 300 µM on MDM2-N [1] was found to be 66%. Moreover, at MDM2-N [2], the inhibition at 700 µM amounted to 31%. Further, in series [3], the solubility is 250 to 500 µM (≈ 46.3 to 92.6 µg/mL).

For the compound `Oc1ccc(Nc2ccccc2)cc1` [Compound 42], on MDM2-N [1], the inhibition at 300 µM is 52%. In addition, at MDM2-N [2], the inhibition at 700 µM was 60%. Moreover, the solubility in series [3] is 250 to 500 µM (≈ 46.3 to 92.6 µg/mL).

On to `c1ccc(Nc2ccccc2)cc1` [Compound 43], for which the inhibition at 300 µM at MDM2-N [1] amounted to 36%. The inhibition at 700 µM at MDM2-N [2] is 33%. Besides, the solubility in series [3] is 250 to 500 µM (≈ 42.3 to 84.6 µg/mL).

With `Nc1ccc(Nc2ccccc2)cc1` [Compound 44], the inhibition at 300 µM at MDM2-N [1] was determined as 30%. Also, on MDM2-N [2], the inhibition at 700 µM worked out at 8%. The solubility in series [3] is 62.5 to 125 µM (≈ 11.5 to 23 µg/mL).

In the case of `O=C(O)c1ccccc1Nc1ccccc1` [Compound 45], the solubility in series [3] was above 1000 µM.

On to `COc1ccc(C2=N[C@@H](c3ccc(Cl)cc3)[C@@H](c3ccc(Cl)cc3)N2C(=O)N2CCNC(=O)C2)c(OC(C)C)c1` [Nutlin-3], for which the IC50 in the series on MDM2 is […].
